Legend:
[1] = tested on: S. oryzae; test: Wheat flour disk feeding bioassay of lectins and trypsin inhibitors; type: in vivo; details: for Feeding Rate (% of Control): 1% w/w in wheat flour disk; for Activity against S. oryzae: native form, 1% w/w
Procedure: Lectins and trypsin inhibitors shown in Table 20 were assayed in their native form to determine their activity against S. oryzae in the wheat flour disk bioassay.

[2] = tested on: rice weevil; test: Flour disk feeding bioassay; type: in vivo, Sitophilus oryzae (L.)
Procedure: The rice weevil [Sitophilus oryzae (L.)] was used for all bioassays. One ml of an aqueous solution containing test material was mixed with 200 mg wheat flour. Distilled water was used as a control. Approximately 100 μl of the stirred suspension were removed and placed in the bottom of a polystyrene Petri dish, and allowed to air dry overnight at room temperature to produce the flour disks. The disks were equilibrated at 30±1° C. and 70±5% r.h. for 24 hr to stabilize the moisture content. Individual weighed disks and 5 adult beetles (1 to 7 days old, starved for 24 hrs before use) were transferred to petri dishes and kept at 30±1° C. and 70±5% r.h. for 4 days (5 replicates) before the remains of the flour disk were weighed.
Saponins, characterized by their bitter taste, foaming in aqueous solutions and haemolytic activity, are a diverse group of secondary plant metabolites containing a carbohydrate moiety (mono- or oligosaccharide) attached to either a steroid (C27) or a triterpenoid (C30). Saponins are reported to have insecticidal activity. Saponin extractions were prepared from the seeds of commercial peas (Pisum sativum). Approximately 100 g seeds were milled with a Stein mill for 5 minutes and 10 g flour was extracted with 1000 ml chloroform for 16 hrs in a Soxhlet extractor to remove pigments and lipids. Three hundred mg air-dried defatted flour was refluxed for 5 min with 60 ml 80% MeOH, then transferred to a centrifuge tube with 2×5 ml 80% MeOH rinse. The slurry extracts were centrifuged at 10,000 rpm for 10 min. The pellet was dried at room temperature for testing the residual insecticidal activities and the supernatant was evaporated to 7-8 ml under reduced pressure in a rotary evaporator at 37° C. The solution and additional 3 ml distilled water rinse were applied to a reverse phase C18 cartridge (Sep Pak, C18). The column was washed with 3×5 ml 30% MeOH then eluted with 4×5 ml MeOH. The MeOH elute was evaporated to dryness in a rotary evaporator, and then dissolved in 6 ml distilled water (at a concentration equivalent to 50 mg defatted flour per ml). This extract was used for bioassay.
One ml saponin extract (50 mg equivalent/ml) was loaded on ion exchange columns (2 ml volume) with Dowex AG-SOW [H^+ ] and Dowex AG-1 [Cl^- ] respectively. The columns were eluted with 10 ml distilled water. The water elute was evaporated to dryness in a rotary evaporator, and then dissolve in 1 ml distilled water. The water fractions were used for HPLC analysis and bioassay.
The bioassays were as described in the preceding example.

Molecule: Concanavalin A
- Feeding Rate (% of Control) [1]: 82.5%
- Activity against S. oryzae [1]: weakly active

Molecule: Soybean trypsin inhibitor
- Feeding Rate (% of Control) [1]: 98.7%
- Activity against S. oryzae [1]: inactive

Molecule: CC1OC(OC2C(OC3C(OC4CCC5(C)C(CCC6(C)C5CC=C5C7CC(C)(C)CC(O)C7(C)CCC56C)C4(C)CO)OC(C(=O)O)C(O)C3O)OC(CO)C(O)C2O)C(O)C(O)C1O (centres unmarked) [Soyasaponin I]
- Food consumption ([2]; 0.63 mg/g): 0.52 mg/day/insect
- Food consumption, % of control ([2]; 0.63 mg/g): 99.8%
- Food consumption ([2]; 1.25 mg/g): 0.44 mg/day/insect
- Food consumption, % of control ([2]; 1.25 mg/g): 84.2%
- Food consumption ([2]; 2.50 mg/g): 0.43 mg/day/insect
- Food consumption, % of control ([2]; 2.50 mg/g): 82.8%
- Food consumption ([2]; 5.00 mg/g): 0.46 mg/day/insect
- Food consumption, % of control ([2]; 5.00 mg/g): 88.4%
- Food consumption ([2]; 10.0 mg/g): 0.51 mg/day/insect
- Food consumption, % of control ([2]; 10.0 mg/g): 97.9%
- Activity against the test insect ([2]; ~0.6 mg/g and up to 10 mg/g): not active

B1: Pea lectin: pea lectin, native form (protein, UniProt P02867 31-217; P02867 218-275, looked up)
Lectin beta chain: TETTSFLITKFSPDQQNLIFQGDGYTTKEKLTLTKAVKNTVGRALYSSPIHIWDRETGNVANFVTSFTFVINAPNSYNVADGFTFFIAPVDTKPQTGGGYLGVFNSAEYDKTTQTVAVEFDTFYNAAWDPSNRDRHIGIDVNSIKSVNTKSWKLQNGEEANVVIAFNAATNVLTVSLTYPNSLEEEN
Lectin alpha chain: VTSYTLSDVVSLKDVVPEWVRIGFSATTGAEYAAHEVLSWSFHSELSGTSSSKQAADA
- Feeding Rate (% of Control) [1]: 71.4%
- Activity against S. oryzae [1]: weakly active
